From US20040141992A1, “Desensitizers” (priority 2001, published 2004)
Like-named read-outs stand apart in the source and are kept apart here. No end group written: not given here.

Tests used:
[1] = test system: healthy volunteers; test: Allergic skin test (intradermal injection, flare size) in healthy volunteers; type: in vivo, human; conditions: for positive skin reaction, number of cases: among 41 or 42 cases of healthy volunteers
Method: Therefore, it was investigated whether an allergic reaction to a peptide derived from the above self-antigen would also be observed in healthy volunteers. Skin tests were carried out with respect to self-derived tumor rejection antigen peptides capable of inducing cytotoxic T cells for 42 cases of healthy volunteers whose age ranges from 19 years old to 54 years old (mean age 29.2 years). For testing an allergic skin reaction, 10 μg of each peptide (50 μl volume) was intradermally injected, and evaluation was carried out 15 minutes after the injection. The results are summarized in Tables 1 to 4, wherein ‘NT’ and ‘S. T’ mean ‘not tested’ and ‘skin test’, respectively. −: longest diameter (D) of flare […] +: 10 mm≦D<30 mm ++: 30 mm≦D<50 mm +++: 50 mm≦D

[2] = test system: cancer patients; test: Skin test by pre-vaccination before phase I clinical trial in cancer patients
[3] = test system: cancer patients; conditions: human, in vivo
[4] = test system: skin reaction and serum IgE level against CypB84; test: Phase I clinical trial of peptide vaccine using CypB91 in lung cancer patient; type: in vivo, human
Method: The phase I clinical trial of a peptide vaccine using CypB91 was carried out on a lung cancer patient whose skin reaction and serum IgE level against CypB84 were positive in the above allergic skin test. The skin reaction and serum IgE level against CypB91 of the patient were negative. […] A skin reaction and a serum […] level against CypB91 even after 3 times administration of CypB91 were substantially the same as those before administration, i.e., negative (FIG. 1B).

[5] = test system: skin reaction and serum IgE level against ART413; conditions: human, in vivo
Method: The phase I clinical trial with ART475 was carried out on an ovarian cancer patient whose skin reaction against ART413 was positive. With respect to the patient, a skin reaction against ART475 was negative, and a specific IgE level in serum against ART413 and ART475 was low. […] Namely, an allergic reaction and a specific IgE level in serum against ART413 were reduced by administration of ART475.

[6] = test system: skin reaction and serum IgE level against SART3315; conditions: human, in vivo
Method: The phase I clinical test using SART3109 was carried out on a colon cancer patient whose skin reaction against SART3315 was positive. With respect to the patient, a skin reaction against SART3109 was negative, and a specific IgE level in serum against SART3315 and SART3109 was low. […] Although a SART3109-specific IgE level in serum was increased by administration of SART3109, skin reactions before and after administration of the same were negative (FIG. 1F). Namely, an allergic reaction and the specific IgE level in serum against SART3315 were reduced by administration of SART3109.

[7] = positive donors / donors tested, healthy volunteers

Substance	positive skin reaction, percent of healthy volunteers ([1]; healthy volunteers)	S. T positive rate [1, 7]	positive skin reaction, number of cases [1]	also measured
AFLRHAAL [ART413, AFLRHAAL]	95%	39/41		allergic skin reaction ([2]; ovarian cancer patients): elicited an allergic skin reaction
AYDFLYNYL [SART2161, AYDFLYNYL]		0/42		S. T (skin test, size of inflammatory flare) ([1]; individual healthy donors, 10 μg peptide intradermally, evaluated 15 minutes after injection): − (longest diameter (D) of flare <30 mm)
AYIDFEMKI [SART3315, AYIDFEMKI]	44%	18/41	18 cases	
CypB84F-Y: peptide obtained by partially modifying CypB84: phenylalanine (F) at the 2nd position replaced with tyrosine (Y) (KYHRVIKDF; Peptide consisting of 9 amino acid residues from the 84th residue to the 92nd residue of cyclophillin B)				immediate hypersensitivity skin reactions elicited [3]: eight of ten
CypB91-2F-Y: peptide obtained by replacing phenylalanine at the 2nd position of CypB91 with tyrosine (DYMIQGGDF; Designed peptide based on the peptide consisting of 9 amino acid residues from the 91st residue to the 99th residue of cyclophillin B)				inhibition of skin reaction and specific IgE level against CypB84, number of cases ([4]; among 10 cases tested, vaccination of CypB91 or CypB91-2F-Y): 9 cases
DFMIQGGDF [CypB91, DFMIQGGDF]				S. T positive rate ([1]; human, in vivo): 0/42; skin reaction against CypB91 ([4]; after 3 times administration of CypB91): negative
DYPSLSATDI [ART475, DYPSLSATDI]		1/41		ART475-specific IgE level in serum [5]: gradually increased; skin reaction against ART475 [5]: negative
KFHRVIKDF [CypB84, KFHRVIKDF]	95%	40/42	40 cases	immediate hypersensitivity skin reactions elicited ([2]; pre-vaccinated lung-cancer patients): eight of ten
SYTRLFLIL [SART2899, SYTRLFLIL]	24%	10/41	10 cases	
VYDYNCHVDL [SART3109, VYDYNCHVDL]	17%	7/42	7 cases	SART3109-specific IgE level in serum [6]: increased; skin reactions against SART3109 [6]: negative
